Data taken from EP1551873B1, “AGONISTS AND ANTAGONISTS OF THE HUMAN ODORANT RECEPTOR OR17-4 AND USES THEREOF” (Symrise AG, priority 2002, dated 2004).

Experiments:
[1] = tested on: hOR17-4; assay: Ca2+ imaging (Fura-2) of HEK293 cells transiently transfected with pOR17-4 (chimeric receptor); type: cell-based, human; details: for Rezeptoraktivierung (Ca^2+-Antwort): single odorant about 500 µM, pOR17-4-transfected HEK293 cells; for Wirksamkeit (Rangordnung der Agonisten): ranking by amplitude normalised to ATP and by responding cells relative to Cyclamal ca. 5 mM
Description: Es wird vermutet, dass die Transmembrandomänen III-VI eine Bindungstasche zum Binden von Agonisten bilden (s. S. Firestein, Nature 413, 211-218 (2001)). Um diese Vermutung für den Rezeptor hOR17-4 zu überprüfen wurde ein für die vermuteten Transmembrandomänen III bis VI codierender Abschnitt der für hOR17-4 codierenden cDNA in einem Shuttle-Expressions-Vektor (pOLF-Express) kloniert. Der Expressionsvektor pOLF-Express umfasst die für die N- und C-terminalen Regionen von hOR17-40 codierenden DNA-Abschnitte (C. H. Wetzel et al., Journal of Neuroscience 19, 7426-7433 (1999)). Das resultierende chimäre Rezeptorprotein sollte die Agonistenspezifität des vollständigen Rezeptors hOR17-4 besitzen.
HEK293-Zellen wurden in MEM (Life Technologies, Gaithersburg, MD), das mit 10 % hitze-inaktiviertem fetalem Kälber-Serum angereichert war, in einem Inkubator bei 37 °C in einer Atmosphäre aus 95 % befeuchteter Luft und 5 % CO2 kultiviert. Semikonfluente Zellen wurden in 35 mm Gefäßen (Falcon) mittels Calciumphosphat-Präzipitation (Zufall et al., PNAS 90 (1993), 9335-9339) unter Verwendung jeweils des Plasmids pOR17-4 bzw. pOR17-4v transfiziert. Die Transfektionseffizienz - typischerweise 10 % - wurde histochemisch mit dem Reporterplasmid pCH110 (Pharmacia, Uppsala, Schweden) überprüft, das für β-Galactosidase codiert. Messungen wurden 48 bis 72 Stunden nach der Transfektion durchgeführt. Die Transfektionseffizienz kann mit einem für GFP, einem grün fluoreszierenden Protein, codierenden Reporterplasmid ebenfalls überprüft werden.
Die Rezeptor-Aktivierung in HEK293-Zellen führt zu einem vorübergehenden Anstieg der cytosolischen Ca^2+-Konzentration, die auf der Einzelzell-Ebene unter Verwendung des Ca^2+-sensitiven Farbstoffes Fura-2 (Fura-2 AM, Molecular Probes Europe BV, Leiden, Niederlande; Ladekonzentration 3-4 µg/ml; Ladezeit ca. 30 min) und ratiofluorometrischen Bildgebungstechniken (Imaging-Experimente) detektiert wurden.
Die Ca^2+-imaging-Experimente wurden auf dem Träger eines invertierten Zeiss-Mikroskopes durchgeführt, das für die ratiofluorometrische Bildgebung mit einer Xenon-Bogenlampe, einem Vielfach-Wellenlängen-Illuminations-System POLYCH-ROM II zur Anregung, einer gekühlten charge-coupled device (CCD)-Kamera und einer WinNT-basierten T.I.L.L.-Vision-Software zum Sammeln und raum- und zeitabhängigen Quantifizieren Ca^2+-abhängiger Fluoreszenz-Signale (F340/F380-Verhältnis) ausgestattet war. HEK293-Zellen wurden mit 32-facher, Spermazellen mit 63-facher Vergrößerung beobachtet.
HEK293- und Spermazellen wurden unter Verwendung eines speziellen Applikations-Systems, das es gestattete, vorübergehend alle Zellen im Blickfeld aus einem von sechs benutzergewählten Kapillarröhrchen zu überspülen, Geruchs- und/oder Wirkstoffen (Testlösungen) ausgesetzt. Der Wechsel zwischen den Testlösungen erfolgte nahezu sofort; auch trat im Wesentlichen keine Wirkungsverzögerung nach dem Wechsel auf, weil die Röhrchenspitzen zum optischen Feld eng benachbart waren. Zwischen den Applikationen von Testlösungen überspülte ein Pufferlösungsstrom kontinuierlich alle Zellen im Gefäß, um jedwede potentielle Hintergrund-Anreicherung von Testlösungen (Geruchs- bzw. Wirkstoffen) zu minimieren. Alle Lösungen wurden bei Raumtemperatur appliziert. Alle verwendeten Geruchsstoffe stammten von Dr. T. Gerke, Henkel KGaA, Düsseldorf, FRG, andere Wirkstoffe wurden von Sigma gekauft. Zur Zusammensetzung der Henkel 100-Mischung vergleiche C. H. Wetzel et al., Journal of Neuroscience 19, 7426-7433 (1999).
Alle auf die potentielle Aktivierung von hOR17-4 untersuchten Geruchsstoffe wurden wenigstens in drei verschiedenen Reihen von Transfektionsexperimenten getestet. […] Geruchsstoffe, die nicht in wenigstens 2 % aller HEK293-Zellen messbare Ca^2+-Konzentrationssteigerung auslösten, wurden nicht zu den hOR17-4-spezifischen Agonisten gezählt, ebenso diejenigen wenigen der untersuchten Komponenten, die ein unspezifisches Ca^2+-Signal in fast jeder Zelle hervorriefen. […]

[2] = biological target: T1, hOR17-40 (Homo sapiens, UniProt P47881); assay: Ca2+ imaging of HEK293 cells transfected with pOR17-40; type: cell-based; details: n=168
T1 construct: pOR17-40 (Ausschnitt) mit der vollständigen cDNA von hOR17-40; expressed in transfected cells; host or cells: HEK293, plasmid pOR17-40
T1 sequence (P47881 1-315): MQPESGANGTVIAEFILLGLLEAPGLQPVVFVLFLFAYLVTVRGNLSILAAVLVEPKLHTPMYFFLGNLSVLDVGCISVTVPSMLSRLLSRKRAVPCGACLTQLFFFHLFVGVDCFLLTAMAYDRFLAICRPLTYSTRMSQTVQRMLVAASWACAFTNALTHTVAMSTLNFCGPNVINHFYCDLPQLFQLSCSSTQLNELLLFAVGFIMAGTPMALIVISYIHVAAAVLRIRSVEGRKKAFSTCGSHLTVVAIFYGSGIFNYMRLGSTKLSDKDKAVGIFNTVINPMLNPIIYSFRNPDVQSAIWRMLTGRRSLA

[3] = biological target: T1, hOR17-40; details: literature (Wetzel et al. 1999), HEK293; cited from earlier work
[4] = tested on: olfaktorische Rezeptor OR5; details: receptor expressed in E. coli; cited from earlier work
[5] = tested on: Spermien; assay: Signal transduction inhibitors on bourgeonal response of sperm (chemotaxis and swimming speed); type: cell-based, human; details: inhibitor 50 µM, Bourgeonal 100 nM
Experimental: Gefrorene Samenproben von fünf gesunden Spendern wurden aus der California Cryobank (Los Angeles, CA, USA) erhalten und für Bioassays gemäß den World Health Organization-Richtlinien (World Health Organization: Laboratory for the examination of human serum and semen-cervical mucus interaction, Cambridge University Press (1993)) vorbereitet (vgl. vorheriges Beispiel und Beispiel 7). Bevor oder während die Spermien mit Bourgeonal (100 nM) behandelt wurden, wurden sie jeweils (a) mit Adenylatcyclase-Inhibitor (MDL-12,330A, 50 µM) und (b) mit einem Phospholipase C-Inhibitor (U73122, 50 µM) behandelt.

[6] = biological target: T2, Ratten-I7-Rezeptor (Rattus norvegicus, UniProt P23270); details: cited from earlier work
T2 sequence (P23270 1-327): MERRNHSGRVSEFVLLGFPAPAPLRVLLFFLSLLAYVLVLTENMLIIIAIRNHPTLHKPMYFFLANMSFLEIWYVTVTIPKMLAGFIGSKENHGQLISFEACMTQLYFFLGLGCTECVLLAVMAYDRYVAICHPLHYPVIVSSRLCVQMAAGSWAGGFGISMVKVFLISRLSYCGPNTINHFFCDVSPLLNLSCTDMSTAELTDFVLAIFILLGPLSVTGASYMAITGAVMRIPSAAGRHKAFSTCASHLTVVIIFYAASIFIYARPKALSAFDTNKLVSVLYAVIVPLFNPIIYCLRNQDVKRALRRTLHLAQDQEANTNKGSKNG

Compound	Rezeptoraktivierung (Ca^2+-Antwort) [1]	also measured
CC(CC=O)c1ccccc1 (centres unmarked) [3-PBA, 3-Phenylbutyraldehyd]	klaren Ca^2+-Antworten	eine Ca^2+-Reaktion nicht mehr auslösender Schwellenwert [1]: ~50 µM
CC(CCO)c1ccccc1 (centres unmarked) [3-Phenylbutylalkohol, reference compound]	aktivierten den Rezeptor nicht	
O=CCCc1ccccc1 [3-Phenylpropanal]	klaren Ca^2+-Antworten	
O=C(O)CCc1ccccc1 [3-Phenylpropionsäure, reference compound]	aktivierten den Rezeptor nicht	
O=CCCCc1ccccc1 [4-Phenylbutylaldehyd, 4-Phenylbutyraldehyd]	deutliche Ca^2+-Signale	
O=CCCCCc1ccccc1 [5-Phenylvaleraldehyd, reference compound]	keine messbare Antwort	
CC(C)(C)c1ccc(OCC=O)cc1 [(4-tert-Butylphenoxy)acetaldehyd, (4-tert-butylphenoxy)acetaldehyd]	erzeugte ein Ca^2+-Signal	
CC=Cc1ccc(OC)cc1 [Anethol, reference compound]	aktivierten den Rezeptor nicht	
O=Cc1ccccc1 [Benzaldehyd, reference compound]	keine messbare Antwort	
COc1ccc(CC(C)C=O)cc1 (centres unmarked) [Canthoxal]	klare Ca^2+-Antworten	Induktion einer Ca^2+-Konzentrationssteigerung ([1]; agonist concentration reduced to 10^-6 M): zu einem gewissen Ausmaß; Wirksamkeit (Rangordnung der Agonisten) [1]: wirksamere Agonisten
O=CC=Cc1ccccc1 [Cinnamaldehyd, reference compound]	vollständig inaktiv	
CC(C=O)Cc1ccc(C(C)C)cc1 (centres unmarked) [Cyclamal]	Agonist identifiziert	Wirksamkeit (Rangordnung der Agonisten) [1]: nicht der wirksamste Agonist; Desensitisierung der Geruchsstoff-Antwort ([1]; single application, most responsive cells, ATP response unchanged): vollständigen und langanhaltenden Desensitisierung
CCc1ccc(CC(C)(C)C=O)cc1 [Floralazon]	Fähigkeit der Substanzen, den Rezeptor zu aktivieren	
CC(C=O)Cc1ccc2c(c1)OCO2 (centres unmarked) [Helional, reference compound]	keiner Rezeptoraktivierung	vorübergehende Erhöhung des cytosolischen Ca^2+-Spiegels, Anteil aller getesteten Zellen [2]: 2 - 5%; Agonist (Aktivierung des Rezeptors, Erhöhung des cytosolischen Ca^2+-Spiegels) [3]: als Agonisten wirkende Substanzen
CC(=O)CCc1ccc2c(c1)OCO2 [Heliotropylaceton]		Agonist (Aktivierung des Rezeptors, Erhöhung des cytosolischen Ca^2+-Spiegels) [3]: als Agonisten wirkende Substanzen
CC(C)c1ccccc1 [Isopropylbenzol, reference compound]	induzierte keine Rezeptoraktivität	
CC(C=O)Cc1ccc(C(C)(C)C)cc1 (centres unmarked) [Lilial, reference compound]	Fähigkeit der Substanzen, den Rezeptor zu aktivieren	Wirksamkeit (Rangordnung der Agonisten) [1]: wirksamere Agonisten; spezifische Bindung [4]: spezifische Bindung
Cl.c1ccc(C2CCCC2NC2=NCCCCCCCCCCC2)cc1 (centres unmarked) [MDL-12,330A]		Anteil der bourgeonal-responsiven Spermien, die nicht mehr auf Bourgeonal reagierten ([5]; missing chemotaxis and missing change of swimming speed): 72%
CCCCCCCC=O [Octanal, reference compound]	nicht aktiviert	Stimulation des Rezeptors [6]: stimuliert
O=CCc1ccccc1 [Phenylacetaldehyd]	deutliche Ca^2+-Signale	
COc1ccc2c(c1)CC[C@@H]1[C@@H]2CC[C@]2(C)[C@@H](NCCCCCCN3C(=O)C=CC3=O)CC[C@@H]12 [U73122]		Änderung des Spermienverhaltens [5]: keine Änderung des Spermienverhaltens
Citrusal [reference compound]	nicht aktivierenden	
